Data reported in the METLIN SMRT retention time set (Domingo-Almenara et al. 2019).

Assay: gradient 5% acetonitrile 3 min, to 50% in 2 min, to 85% in 15 min, held 3 min, 100 µL/min
Details: column: Zorbax Extend-C18 2.1 x 50 mm; eluents: water / acetonitrile, 0.1% formic acid
Summary of the method: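 Retention time was recorded from adduct peaks, which were picked computationally and each inspected manually. Pure standards ran in mixtures of ~100 molecules on HPLC coupled to a quadrupole time-of-flight mass spectrometer, in positive and negative ionization mode, through a Zorbax Extend-C18 column (2.1 × 50 mm, 1.8 μm) at 100 μL/min. Eluents were water and acetonitrile, each with 0.1% formic acid.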

| SMILES | RP-LC retention time |
| --- | --- |
| Cc1ccc(NC(=O)Nc2nc3ccccc3s2)cc1NC(=O)Nc1nc2ccccc2s1 | 1040 s |
| CCn1c(=O)c2c(nc(/C=C/c3ccc(OC)c(OC)c3)n2C)n(CC)c1=O | 869 s |
| Cn1cc2c3c(cccc31)CN(C(=O)Cc1ccc(Cl)cc1)CC2 | 986 s |
| Cc1ccc(CNC(=O)Cc2nnc(-c3ccccn3)o2)cc1 | 692 s |
| CCOC(=O)c1c(C)[nH]c(C(=O)N2CCC(C(C)C(=O)N3CCOCC3)CC2)c1C (stereo unspecified) | 681 s |
| CCN1CCN(c2c(S(=O)(=O)c3ccc(OC)cc3)cnc3ccc(OC)cc23)CC1 | 640 s |
| COc1ccc(C)c2sc(NCCCn3ccnc3)nc12 | 552 s |
| CCC(C)NC(=O)c1cccc(C)c1 (stereo unspecified) | 847 s |
| CCn1nc(C)c(CCNC(=O)c2cc3c(=O)n(Cc4cccnc4)ccc3nc2C)c1C | 563 s |
| COc1ccc(-n2ccnc(NC(=O)Nc3ccccc3)c2=O)cc1OC | 829 s |
| Cc1cccn2c(=O)cc(CN(C)Cc3ccccc3)nc12 | 603 s |
| Cc1cc(C)cc(Oc2nccn3c(=O)n(CC(=O)Nc4cccc(Cl)c4C)nc23)c1 | 992 s |
| O=C(CCc1csc(NC(=O)c2ccccc2)n1)Nc1nc2ccc(Cl)cc2s1 | 970 s |
| Cn1cccc1C(=O)N1CC(Oc2ccc(-c3nc(-c4ccccc4)no3)cc2)C1 | 1170 s |
| Cc1ccc(-c2ccc(N3CCCC(C(=O)N4CCCC4)C3)nn2)cc1 (stereo unspecified) | 647 s |
| Cc1ccc(Nc2nc(C(=O)NC3CCCCCC3)nc3ccccc23)cc1 | 966 s |
| O=C(c1cc(-c2ccccc2)n[nH]1)N1CCN(c2cc(-c3ccccc3)ncn2)CC1 | 609 s |
| Cc1nc2cc(-c3noc(-c4ccc5c(c4)OCO5)n3)ccc2o1 | 1050 s |
| CC1=CS/C(=C(/C#N)C(=O)N2CCOCC2)N1c1ccccc1 | 635 s |
| O=C(CSc1ncccn1)Nc1nc(-c2ccccc2)c(-c2ccccc2)o1 | 905 s |
| Cc1ccc(C)c(-n2ncc3c(N4CCN(C)CC4)ncnc32)c1 | 614 s |
| Cc1cc(NC(=O)CN2C(=O)c3ccccc3C2=O)n(-c2ccccc2)n1 | 709 s |

| SMILES | RP-LC retention time |
| --- | --- |
| O=C1[C@H]2CN(Cc3ccc(F)c(Cl)c3)C[C@H]2C(=O)N1Cc1ccc2c(c1)OCO2 | 853 s |
| Cc1cc(C)cc(N2C=C(C(=O)N3CCOCC3)S(=O)(=O)c3ccc(F)cc32)c1 | 788 s |
| Cc1ccc(F)c(NC(=O)Nc2ccc(-c3cccc4[nH]nc(N)c34)cc2)c1 | 845 s |
| CN(C)c1ccc(CNC(=O)[C@@]23CCCC[C@H]2N(CCc2ccccc2)C(=O)CC3)cc1 | 634 s |
| CC(C)c1ccc(N2C(=O)CN(S(C)(=O)=O)CC2(C)C(=O)NCc2ccc(Cl)cc2)cc1 (stereo unspecified) | 966 s |
| Cc1ccc(C)c(NC(=O)Cc2nnc(-c3cnccn3)o2)c1 | 736 s |
| Cc1nc2cc(N3CC(C(=O)NCc4ccccc4F)CC3=O)ccc2o1 (stereo unspecified) | 699 s |
| CC(C)(C)c1ccc(C(=O)Nc2ccc3c(c2)C(=O)NC3=O)cc1 | 853 s |
| O=C(NCc1ccc2c(c1)OCO2)c1cn2c(n1)CCCC2 | 581 s |
| O=C(NC1CCCC1)C1CCN(C(=O)c2cccn2-c2cccnc2)CC1 | 632 s |
| N#Cc1ccc(CN2CCCC2=O)cc1 | 658 s |
| CCc1nc(OCC(=O)Nc2ccc(OC)cc2OC)c2ccccc2n1 | 788 s |
| O=C(NC1CCCCCCC1)C1CCN(C(=O)c2ncn3c2COC(c2ccc(Cl)cc2)C3)CC1 (stereo unspecified) | 936 s |
| Cc1ccc(CNC(=O)C2(C)Cn3cnc(C(=O)N4CCCCC4)c3C(=O)N2C2CC2)cc1 (stereo unspecified) | 784 s |
| Cc1ccc(-c2noc(CNC(=O)C3CCC(=O)N3S(=O)(=O)c3ccc(C)cc3)n2)cc1 (stereo unspecified) | 929 s |
| CN(C)c1ccc(-c2noc(C3CC(=O)N(c4ccc(F)cc4)C3)n2)cc1 (stereo unspecified) | 994 s |
| Cc1nnc2cc(N3CCN(C(=O)Nc4ccc5c(c4)OCCO5)CC3)cnn12 | 595 s |
| CCc1cc2nn(CC#N)c(=O)n2c(C(C)C)n1 | 871 s |
| CN1CCN(c2cc(C(=O)O)c3cc(NC(=O)C(C)(C)C)ccc3n2)CC1 | 578 s |
| CCc1noc(NC(C)=O)c1-c1ccc(OC)c(S(=O)(=O)Nc2ccc(S(N)(=O)=O)cc2)c1 | 655 s |
| COc1nc2ccccc2nc1N1CCCC(C(=O)Nc2ccccc2F)C1 (stereo unspecified) | 1140 s |
| COc1ccc(S(=O)(=O)N2CCC(n3c(-c4ccoc4)nc4cccnc43)C2)cc1 (stereo unspecified) | 831 s |

| SMILES | RP-LC retention time |
| --- | --- |
| Cc1ccc(C(=O)Nc2ccc3c(c2)Sc2ncccc2C(=O)N3C(C)C)s1 | 886 s |
| Cc1ccc(NC(=O)N2CCc3c(c(-c4nc(C)no4)nn3C)C2)c(C)c1 | 762 s |
| CNC(=O)Nc1ccc(S(N)(=O)=O)cc1 | 604 s |
| Cn1nc(C(=O)N2CCC3(CC2)N=C(c2cccc(Br)c2)NO3)c2ccccc21 | 923 s |
| Cn1cccc1C(=O)Nc1cnn(-c2ncc(N3CCCCC3)cn2)c1 | 819 s |
| COc1ccccc1NC(=O)C1CC(=O)N(c2n[nH]c3cccc(F)c23)C1 (stereo unspecified) | 728 s |
| O=C(Cn1ccc2ccn(Cc3cccnc3)c2c1=O)N1CCCC1 | 578 s |
| CCCn1c(-c2cccc(C(=O)NC(C)c3ccccc3)c2)nc2cccnc21 (stereo unspecified) | 824 s |
| COCc1nnc(NC(=O)c2ccccc2OCc2nc(-c3ccccc3)no2)s1 | 1080 s |
| CCNc1cc(N2CCCC(CCC(=O)Nc3ccc(OC)cc3OC)C2)ncn1 (stereo unspecified) | 671 s |
| CCOC(=O)c1noc2nc(C)nc(NCCCN3CCN(c4cccc(C)c4)C(C)C3)c12 (stereo unspecified) | 739 s |
| Cc1sc2ncnc(N3CCCC(C)C3)c2c1C(=O)Nc1ccc(Cl)cc1 (stereo unspecified) | 1290 s |
| COc1ccccc1CCC(=O)Nc1cc(-c2cccnc2)no1 | 781 s |
| O=C(NCc1cnoc1-c1ccc(F)cc1)c1ccccc1F | 866 s |
| COc1ccc(Nc2c(-c3ccc(C)cc3)nc3cnc(Br)cn23)cc1OC | 915 s |
| CCNC(=O)c1[nH]c2ccccc2c1N1CCCC1=O | 657 s |
| Cc1nnc2n1-c1sccc1C(c1ccccc1)=NC2 | 712 s |
| Cc1cccc(C)c1NC(=O)C1CCCN(c2nc3c(s2)c(C)nn3-c2cccc(F)c2)C1 (stereo unspecified) | 1230 s |
| COC(=O)c1ccc2c(=O)n(-c3cccc(Cl)c3)c(N3CCC(C(N)=O)CC3)nc2c1 | 781 s |
| Cn1cc(-c2nc(C(=O)NCc3ccccc3Cl)cs2)c2cccnc21 | 989 s |
| CCCNC(=O)C1CCN(c2ccc(SCC(=O)NCc3ccc(F)cc3)nn2)CC1 | 667 s |
| CCCNC(=O)Cn1cnc2sc(C(=O)N3CC(C)CC(C)C3)c(C)c2c1=O (stereo unspecified) | 779 s |
